Assay results reported in paper PMC9944328 (Nature Communications, 2023).
Read-outs that look alike come from different tables or passages of the source.

Tested on: SSTR2 mutants
Assay: NanoBiT β-arrestin 1 recruitment assay, HEK293 (SSTR2 mutants);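 for Emax: percent of the maximal wild-type SSTR2 response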
Type: cell-based, human
Conditions: for Fold of WT: β-arrestin recruitment EC50
Method: The NanoBiT β-arrestin 1 recruitment assays were carried out according to the method described previously. […] Human full-length SSTR wild-type and mutant vectors were C-terminally fused with a 15-amino acid flexible linker and the small fragment (SmBiT). HEK293 cells were seeded into six-well microplates at a density of 1.0 × 10^6 cells/well and cultured for 24 h at 37 °C with 5% CO2. After that, cells were co-transfected with pcDNA3.1+ vectors encoding SSTR wild-type or mutants and human β-arrestin 1. After transfecting for 24 h, the transfected cells were suspended and seeded into white 96-well plates, and then cultured at 37 °C overnight. After that the medium in each well was exchanged for 90 μl of 0.01% bovine serum albumin containing 20 μl of 50 μM coelenterazine h (Carbosynth) diluted in the HBSS assay buffer and incubated for 40 min at room temperature. Then, ligands diluted in the assay buffer was added to each well and the luminescence intensity was measured using the Synergy H1 microplate reader and detected at room temperature in a time period. All data presented are means of at least three independent experiments.

[1] = β-arrestin recruitment, SSTR2 F127(3.37)A, n=3
[2] = β-arrestin recruitment, SSTR2 F294(7.35)A, n=3, ND = not detected
[3] = β-arrestin recruitment, SSTR2 I284ECL3A, n=3
[4] = β-arrestin recruitment, SSTR2 K291(7.32)A, n=3, ND = not detected
[5] = β-arrestin recruitment, SSTR2 N276(6.55)A, n=3, ND = not detected
[6] = β-arrestin recruitment, SSTR2 W269(6.48)A, n=3
[7] = β-arrestin recruitment, SSTR2 Y50(1.39)A, n=3
[8] = β-arrestin recruitment, SSTR2 Y205(5.35)A, n=3
[9] = β-arrestin recruitment, SSTR2 Y302(7.43)A, n=3

Question: For `N#Cc1cccc(-c2ccc3ncc(-c4cc(F)cc(F)c4)c(N4CCC(N)CC4)c3c2)c1O` [paltusotine], which “LogEC50 (β-arrestin1 recruitment)” value (best-fit, K291A-2) is on record?
Answer: -7.045

Question: And the “Span (β-arrestin1 recruitment)” value (best-fit, K291A-2)?
Answer: 143.2

Question: And the “Top (β-arrestin1 recruitment)” value (best-fit, K291A-2)?
Answer: 139.9

Question: And the “Bottom (β-arrestin1 recruitment)” value (best-fit, K291A-3)?
Answer: -4.699

Question: And the “LogEC50 (β-arrestin1 recruitment)” value (best-fit, K291A-3)?
Answer: -6.141

Question: And the “Span (β-arrestin1 recruitment)” value (best-fit, K291A-3)?
Answer: 138.3

Question: And the “Top (β-arrestin1 recruitment)” value (best-fit, K291A-3)?
Answer: 133.6

Question: What about the “Bottom (β-arrestin1 recruitment)” value (best-fit, N276A-1) of the same compound?
Answer: -2.311

Question: And the “LogEC50 (β-arrestin1 recruitment)” value (best-fit, N276A-1)?
Answer: -7.135

Question: And the “Span (β-arrestin1 recruitment)” value (best-fit, N276A-1)?
Answer: 170

Question: What about the “Top (β-arrestin1 recruitment)” value (best-fit, N276A-1) of the same compound?
Answer: 167.7

Question: What about the “Bottom (β-arrestin1 recruitment)” value (best-fit, N276A-2) of the same compound?
Answer: -1.74

Question: And the “LogEC50 (β-arrestin1 recruitment)” value (best-fit, N276A-2)?
Answer: -7.135

Question: What about the “Span (β-arrestin1 recruitment)” value (best-fit, N276A-2) of the same compound?
Answer: 128

Question: What about the “Top (β-arrestin1 recruitment)” value (best-fit, N276A-2) of the same compound?
Answer: 126.3

Question: What about the “Bottom (β-arrestin1 recruitment)” value (best-fit, N276A-3) of the same compound?
Answer: -2.993

Question: And the “LogEC50 (β-arrestin1 recruitment)” value (best-fit, N276A-3)?
Answer: -7.215

Question: What about the “Span (β-arrestin1 recruitment)” value (best-fit, N276A-3) of the same compound?
Answer: 180.6

Question: What about the “Top (β-arrestin1 recruitment)” value (best-fit, N276A-3) of the same compound?
Answer: 177.6

Question: And the “Bottom (β-arrestin1 recruitment)” value (best-fit, Y302A-1)?
Answer: 0.04519

Question: And the “LogEC50 (β-arrestin1 recruitment)” value (best-fit, Y302A-1)?
Answer: -6.65

Question: What about the “Span (β-arrestin1 recruitment)” value (best-fit, Y302A-1) of the same compound?
Answer: 206.8

Question: What about the “Top (β-arrestin1 recruitment)” value (best-fit, Y302A-1) of the same compound?
Answer: 206.8

Question: And the “Bottom (β-arrestin1 recruitment)” value (best-fit, Y302A-2)?
Answer: -0.03402

Question: And the “LogEC50 (β-arrestin1 recruitment)” value (best-fit, Y302A-2)?
Answer: -6.645

Question: What about the “Span (β-arrestin1 recruitment)” value (best-fit, Y302A-2) of the same compound?
Answer: 207.2

Question: And the “Top (β-arrestin1 recruitment)” value (best-fit, Y302A-2)?
Answer: 207.2

Question: What about the “Bottom (β-arrestin1 recruitment)” value (best-fit, Y302A-3) of the same compound?
Answer: -0.02562

Question: What about the “LogEC50 (β-arrestin1 recruitment)” value (best-fit, Y302A-3) of the same compound?
Answer: -6.645

Question: What about the “Span (β-arrestin1 recruitment)” value (best-fit, Y302A-3) of the same compound?
Answer: 156

Question: What about the “Top (β-arrestin1 recruitment)” value (best-fit, Y302A-3) of the same compound?
Answer: 156

Question: What about the EC50 (read-out: Best-fit EC50, SSTR2 I284A, run 1) of the same compound?
Answer: 0.181 µM

Question: And the EC50 (read-out: Best-fit EC50, SSTR2 I284A, run 3)?
Answer: 0.18 µM

Question: What about the EC50 (read-out: Best-fit EC50, SSTR2 Y50A, run 1) of the same compound?
Answer: 0.0744 µM

Question: And the EC50 (read-out: Best-fit EC50, SSTR2 Y50A, run 2)?
Answer: 0.065 µM

Question: And the EC50 (read-out: Best-fit EC50, SSTR2 Y50A, run 3)?
Answer: 0.0667 µM

Question: And the EC50 (read-out: EC50 (best-fit value), SSTR2 W269A, run W269A-1)?
Answer: 0.3 µM

Question: And the EC50 (read-out: EC50 (best-fit value), SSTR2 W269A, run W269A-2)?
Answer: 0.61 µM

Question: What about the EC50 (read-out: EC50 (best-fit value), SSTR2 W269A, run W269A-3) of the same compound?
Answer: 0.474 µM

Question: What about the EC50 (read-out: EC50 (best-fit value), SSTR2 Y205A, run Y205A-2) of the same compound?
Answer: 0.15 µM

Question: What about the EC50 (read-out: EC50 (best-fit value), SSTR2 Y205A, run Y205A-3) of the same compound?
Answer: 0.213 µM

Question: What about the EC50 (read-out: EC50 (best-fit), F127A-1) of the same compound?
Answer: 0.21 µM

Question: And the EC50 (read-out: EC50 (best-fit), F127A-2)?
Answer: 0.197 µM

Question: And the EC50 (read-out: EC50 (best-fit), F127A-3)?
Answer: 0.152 µM

Question: What about the EC50 (read-out: EC50 (β-arrestin1 recruitment), best-fit, D295A-1) of the same compound?
Answer: 2.32 µM

Question: And the EC50 (read-out: EC50 (β-arrestin1 recruitment), best-fit, D295A-2)?
Answer: 2.54 µM

Question: What about the EC50 (read-out: EC50 (β-arrestin1 recruitment), best-fit, D295A-3) of the same compound?
Answer: 1.97 µM

Question: And the EC50 (read-out: EC50 (β-arrestin1 recruitment), best-fit, F294A-1)?
Answer: 1.05 µM

Question: And the EC50 (read-out: EC50 (β-arrestin1 recruitment), best-fit, F294A-3)?
Answer: 0.872 µM

Question: What about the EC50 (read-out: EC50 (β-arrestin1 recruitment), best-fit, K291A-1) of the same compound?
Answer: 0.0797 µM

Question: What about the EC50 (read-out: EC50 (β-arrestin1 recruitment), best-fit, K291A-2) of the same compound?
Answer: 0.0902 µM

Question: What about the EC50 (read-out: EC50 (β-arrestin1 recruitment), best-fit, N276A-1) of the same compound?
Answer: 0.0732 µM

Question: And the EC50 (read-out: EC50 (β-arrestin1 recruitment), best-fit, N276A-3)?
Answer: 0.061 µM

Question: And the EC50 (read-out: EC50 (β-arrestin1 recruitment), best-fit, Y302A-1)?
Answer: 0.224 µM

Question: And the EC50 (read-out: EC50 (β-arrestin1 recruitment), best-fit, Y302A-2)?
Answer: 0.226 µM

Question: What about the “Fold of WT” value (SSTR2 D295(7.36)A) of the same compound?
Answer: 1.22

Question: And the “Fold of WT” value (SSTR2 F127(3.37)A)?
Answer: 0.49

Question: And the “Fold of WT” value (SSTR2 F294(7.35)A)?
Answer: 2.44

Question: What about the “Fold of WT” value (SSTR2 I284ECL3A) of the same compound?
Answer: 0.45

Question: And the “Fold of WT” value (SSTR2 K291(7.32)A)?
Answer: 0.21

Question: And the “Fold of WT” value (SSTR2 N276(6.55)A)?
Answer: 0.17

Question: What about the “Fold of WT” value (SSTR2 W269(6.48)A) of the same compound?
Answer: 2.65

Question: What about the “Fold of WT” value (SSTR2 Y50(1.39)A) of the same compound?
Answer: 0.17

Question: And the “Fold of WT” value (SSTR2 Y205(5.35)A)?
Answer: 0.42

Question: What about the “Fold of WT” value (SSTR2 Y302(7.43)A) of the same compound?
Answer: 0.56

Question: And the Emax (β-arrestin recruitment, SSTR2 D295(7.36)A, detected at 10 μM, n=3)?
Answer: 87.12±2.30 %WT

Question: What about the EC50 (β-arrestin recruitment, SSTR2 D295(7.36)A, n=3) of the same compound?
Answer: 0.4957 ± 0.00176 µM

Question: What about the EC50 [1] of the same compound?
Answer: 0.198 ± 0.00666 µM

Question: What about the Emax [1] of the same compound?
Answer: 60.24±1.11 %WT

Question: What about the Emax (β-arrestin recruitment, SSTR2 F208(5.38)A, detected at 10 μM, n=3) of the same compound?
Answer: 70.89±2.39 %WT

Question: And the Emax (β-arrestin recruitment, SSTR2 F265(6.44)A, detected at 10 μM, n=3 octreotide, 4 paltusotine)?
Answer: 49.61±1.04 %WT

Question: And the EC50 [2]?
Answer: 0.9907 ± 0.00593 µM

Question: What about the Emax [2] of the same compound?
Answer: 114.80±11.09 %WT

Question: What about the Emax (β-arrestin recruitment, SSTR2 I130(3.40)A, detected at 10 μM, n=3) of the same compound?
Answer: 30.45±0.36 %WT

Question: What about the EC50 [3] of the same compound?
Answer: 0.181 ± 0.00333 µM

Question: What about the Emax [3] of the same compound?
Answer: 192.70±19.45 %WT

Question: What about the EC50 [4] of the same compound?
Answer: 0.0867 ± 0.0035 µM

Question: And the Emax [4]?
Answer: 133.50±14.76 %WT

Question: What about the Emax (β-arrestin recruitment, SSTR2 L99(2.60)A, detected at 10 μM, n=3) of the same compound?
Answer: 84.26±3.71 %WT

Question: And the EC50 [5]?
Answer: 0.0691 ± 0.00407 µM

Question: And the Emax [5]?
Answer: 157.20±15.71 %WT

Question: What about the Emax (β-arrestin recruitment, SSTR2 P220(5.50)A, detected at 10 μM, n=4) of the same compound?
Answer: 50.55±2.81 %WT

Question: And the Emax (β-arrestin recruitment, SSTR2 Q102(2.63)A, detected at 10 μM, n=3)?
Answer: 26.07±1.00 %WT

Question: What about the Emax (β-arrestin recruitment, SSTR2 Q126(3.36)A, detected at 10 μM, n=3) of the same compound?
Answer: 65.37±3.31 %WT

Question: And the Emax (β-arrestin recruitment, SSTR2 T194(45.51)A, n=3)?
Answer: 95.9±9.02 %WT

Question: And the EC50 [6]?
Answer: 1.077 ± 0.00628 µM

Question: And the Emax [6]?
Answer: 50.80±24.99 %WT

Question: What about the EC50 [7] of the same compound?
Answer: 0.0687 ± 0.00287 µM

Question: What about the Emax [7] of the same compound?
Answer: 90.74±11.02 %WT

Question: And the EC50 [8]?
Answer: 0.172 ± 0.00207 µM

Question: What about the Emax [8] of the same compound?
Answer: 152.00±23.85 %WT

Question: And the EC50 [9]?
Answer: 0.225 ± 0.00667 µM

Question: What about the Emax [9] of the same compound?
Answer: 190.00±17.00 %WT
